# From article PMC4710522, “A Novel Triazolopyridine-Based Spleen Tyrosine Kinase Inhibitor That Arrests Joint Inflammation” (PLoS ONE, 2016)
# Several values for one entry are separate records, joined by “and”; a condition that tells them apart may be missing. Identical values can stand only once.
# Columns and labels:
# Experiment in all cases: SelectScreen kinase assay
# Format in all cases: biochemical
# IRR_h = target: T1, IRR_h (Homo sapiens, UniProt P14616); details: KM ATP, read-out: % control
# T1 construct: purchased Life Technologies (Invitrogen) SelectScreen, Z'-LYTE / Adapta
# Method in brief: (§1)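 Kinase activity measured by Z'-Lyte or Adapta protocols. Single-point testing used 3 µM compound with ATP at the enzyme's KM, or at 10 or 100 µM as indicated. Values given as % control versus DMSO-only wells (100%).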
# NEK2_h = target: T2, NEK2_h (Homo sapiens, UniProt P51955); details: KM ATP, read-out: % control
# T2 construct: purchased Life Technologies (Invitrogen) SelectScreen, Z'-LYTE / Adapta
# T2 sequence (P51955 whole entry): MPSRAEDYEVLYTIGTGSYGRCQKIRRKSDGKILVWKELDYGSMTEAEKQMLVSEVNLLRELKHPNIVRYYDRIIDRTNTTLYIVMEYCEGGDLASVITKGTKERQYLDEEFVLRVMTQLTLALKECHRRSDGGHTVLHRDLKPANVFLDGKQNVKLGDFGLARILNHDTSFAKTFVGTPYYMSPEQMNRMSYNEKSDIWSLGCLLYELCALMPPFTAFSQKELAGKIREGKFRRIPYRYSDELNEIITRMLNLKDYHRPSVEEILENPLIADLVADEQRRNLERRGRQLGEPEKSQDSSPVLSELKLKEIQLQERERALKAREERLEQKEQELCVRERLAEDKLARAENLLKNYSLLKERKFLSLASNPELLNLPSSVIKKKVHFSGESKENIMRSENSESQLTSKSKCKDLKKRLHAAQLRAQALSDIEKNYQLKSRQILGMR
# Method in brief: as §1
# IGF-1R_h = target: T3, IGF-1R_h (Homo sapiens, UniProt P08069); details: KM ATP, read-out: % control
# T3 construct: purchased Life Technologies (Invitrogen) SelectScreen, Z'-LYTE / Adapta
# Method in brief: as §1
# EGFR_h = target: T4, EGFR_h (Homo sapiens, UniProt P00533); details: KM ATP, read-out: % control
# T4 construct: purchased Life Technologies (Invitrogen) SelectScreen, Z'-LYTE / Adapta
# Method in brief: as §1
# Flt3_h = Flt3_h (Homo sapiens, UniProt P36888)
# Chain of Flt3_h (P36888 27-993): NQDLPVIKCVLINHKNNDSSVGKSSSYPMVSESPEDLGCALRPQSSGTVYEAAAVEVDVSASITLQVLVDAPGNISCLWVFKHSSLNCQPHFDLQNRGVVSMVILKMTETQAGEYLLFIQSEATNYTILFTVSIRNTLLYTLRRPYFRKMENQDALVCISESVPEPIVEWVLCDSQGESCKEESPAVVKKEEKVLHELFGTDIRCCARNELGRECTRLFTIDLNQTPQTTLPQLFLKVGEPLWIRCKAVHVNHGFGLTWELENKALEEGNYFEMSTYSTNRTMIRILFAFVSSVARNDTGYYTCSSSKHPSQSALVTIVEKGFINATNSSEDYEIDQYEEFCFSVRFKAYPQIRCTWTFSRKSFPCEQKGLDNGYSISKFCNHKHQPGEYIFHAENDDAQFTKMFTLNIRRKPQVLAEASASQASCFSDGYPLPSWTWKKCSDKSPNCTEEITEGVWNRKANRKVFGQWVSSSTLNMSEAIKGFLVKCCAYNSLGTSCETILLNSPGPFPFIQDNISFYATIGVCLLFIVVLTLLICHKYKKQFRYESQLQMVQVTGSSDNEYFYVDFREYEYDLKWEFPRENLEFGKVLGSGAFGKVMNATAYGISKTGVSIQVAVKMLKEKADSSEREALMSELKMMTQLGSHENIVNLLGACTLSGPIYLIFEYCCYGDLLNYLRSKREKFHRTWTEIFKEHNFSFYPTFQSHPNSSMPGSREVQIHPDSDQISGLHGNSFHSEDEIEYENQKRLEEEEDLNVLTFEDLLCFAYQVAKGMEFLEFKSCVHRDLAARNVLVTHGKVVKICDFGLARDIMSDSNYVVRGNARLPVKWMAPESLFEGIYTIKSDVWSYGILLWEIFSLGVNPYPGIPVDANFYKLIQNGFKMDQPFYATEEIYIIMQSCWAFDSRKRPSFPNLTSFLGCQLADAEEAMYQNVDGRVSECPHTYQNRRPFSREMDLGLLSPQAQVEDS
# MST3_h = target: T5, MST3_h (Homo sapiens, UniProt Q9Y6E0); details: KM ATP, read-out: % control
# T5 construct: purchased Life Technologies (Invitrogen) SelectScreen, Z'-LYTE / Adapta
# Method in brief: as §1
# PKD2_h = target: T6, PKD2_h (Homo sapiens, UniProt Q9BZL6); details: KM ATP, read-out: % control
# T6 construct: purchased Life Technologies (Invitrogen) SelectScreen, Z'-LYTE / Adapta
# Method in brief: as §1
# MARK4_h = target: T7, MARK4_h (Homo sapiens, UniProt Q96L34); details: KM ATP, read-out: % control
# T7 construct: purchased Life Technologies (Invitrogen) SelectScreen, Z'-LYTE / Adapta
# Method in brief: as §1
# MAPK3_h = target: T8, MAPK3_h (Homo sapiens, UniProt P27361); details: KM ATP, read-out: % control
# T8 construct: purchased Life Technologies (Invitrogen) SelectScreen, Z'-LYTE / Adapta
# T8 sequence (P27361 whole entry): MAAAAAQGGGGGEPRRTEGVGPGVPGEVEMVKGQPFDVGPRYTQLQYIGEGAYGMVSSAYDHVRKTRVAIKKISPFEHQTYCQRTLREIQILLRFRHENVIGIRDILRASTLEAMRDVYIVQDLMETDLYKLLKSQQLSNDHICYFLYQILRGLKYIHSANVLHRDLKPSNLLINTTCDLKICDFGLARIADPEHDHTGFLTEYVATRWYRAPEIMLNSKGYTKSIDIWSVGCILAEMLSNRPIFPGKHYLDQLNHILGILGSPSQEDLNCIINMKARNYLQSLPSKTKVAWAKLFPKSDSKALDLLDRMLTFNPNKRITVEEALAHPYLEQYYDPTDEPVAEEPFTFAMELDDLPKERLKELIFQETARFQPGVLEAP
# Method in brief: as §1
# TrkC_h = target: T9, TrkC_h (Homo sapiens, UniProt Q16288); details: KM ATP, read-out: % control
# T9 construct: purchased Life Technologies (Invitrogen) SelectScreen, Z'-LYTE / Adapta
# Method in brief: as §1
# FGFR1_h = target: T10, FGFR1_h (Homo sapiens, UniProt P11362); details: KM ATP, read-out: % control
# T10 construct: purchased Life Technologies (Invitrogen) SelectScreen, Z'-LYTE / Adapta
# Method in brief: as §1
# Flt1_h = target: T11, Flt1_h (Homo sapiens, UniProt P17948); details: KM ATP, read-out: % control
# T11 construct: purchased Life Technologies (Invitrogen) SelectScreen, Z'-LYTE / Adapta
# Method in brief: as §1
# FGFR3_h = target: T12, FGFR3_h (Homo sapiens, UniProt P22607); details: KM ATP, read-out: % control
# T12 construct: purchased Life Technologies (Invitrogen) SelectScreen, Z'-LYTE / Adapta
# Method in brief: as §1
# Ltk_h = target: T13, Ltk_h (Homo sapiens, UniProt P29376); details: KM ATP, read-out: % control
# T13 construct: purchased Life Technologies (Invitrogen) SelectScreen, Z'-LYTE / Adapta
# Method in brief: as §1
# Pim-1_h = target: T14, Pim-1_h (Homo sapiens, UniProt P11309); details: KM ATP, read-out: % control
# T14 construct: purchased Life Technologies (Invitrogen) SelectScreen, Z'-LYTE / Adapta
# T14 sequence (P11309 whole entry): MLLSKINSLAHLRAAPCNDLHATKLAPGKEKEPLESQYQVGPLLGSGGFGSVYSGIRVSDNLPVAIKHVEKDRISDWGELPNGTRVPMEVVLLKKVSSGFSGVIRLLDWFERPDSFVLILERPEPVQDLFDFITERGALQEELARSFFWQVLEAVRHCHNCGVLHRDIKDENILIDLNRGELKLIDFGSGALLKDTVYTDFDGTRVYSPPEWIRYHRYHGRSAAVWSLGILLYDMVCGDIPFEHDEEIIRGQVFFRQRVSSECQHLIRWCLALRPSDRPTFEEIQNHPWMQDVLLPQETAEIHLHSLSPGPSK
# Method in brief: as §1
# PRKG1_h = target: T15, PRKG1_h (Homo sapiens, UniProt Q13976); details: KM ATP, read-out: % control
# T15 construct: purchased Life Technologies (Invitrogen) SelectScreen, Z'-LYTE / Adapta
# Method in brief: as §1
# IRAK1_h = target: T16, IRAK1_h (Homo sapiens, UniProt P51617); details: KM ATP, read-out: % control
# T16 construct: purchased Life Technologies (Invitrogen) SelectScreen, Z'-LYTE / Adapta
# Method in brief: as §1
# Rsk2_h = target: T17, Rsk2_h (Homo sapiens, UniProt P51812); details: KM ATP, read-out: % control
# T17 construct: purchased Life Technologies (Invitrogen) SelectScreen, Z'-LYTE / Adapta
# Method in brief: as §1
# NEK9_h = target: T18, NEK9_h (Homo sapiens, UniProt Q8TD19); details: KM ATP, read-out: % control
# T18 construct: purchased Life Technologies (Invitrogen) SelectScreen, Z'-LYTE / Adapta
# Method in brief: as §1
# LYN-A_h = LYN-A_h (Homo sapiens, UniProt P07948)
# Chain of LYN-A_h (P07948 whole entry): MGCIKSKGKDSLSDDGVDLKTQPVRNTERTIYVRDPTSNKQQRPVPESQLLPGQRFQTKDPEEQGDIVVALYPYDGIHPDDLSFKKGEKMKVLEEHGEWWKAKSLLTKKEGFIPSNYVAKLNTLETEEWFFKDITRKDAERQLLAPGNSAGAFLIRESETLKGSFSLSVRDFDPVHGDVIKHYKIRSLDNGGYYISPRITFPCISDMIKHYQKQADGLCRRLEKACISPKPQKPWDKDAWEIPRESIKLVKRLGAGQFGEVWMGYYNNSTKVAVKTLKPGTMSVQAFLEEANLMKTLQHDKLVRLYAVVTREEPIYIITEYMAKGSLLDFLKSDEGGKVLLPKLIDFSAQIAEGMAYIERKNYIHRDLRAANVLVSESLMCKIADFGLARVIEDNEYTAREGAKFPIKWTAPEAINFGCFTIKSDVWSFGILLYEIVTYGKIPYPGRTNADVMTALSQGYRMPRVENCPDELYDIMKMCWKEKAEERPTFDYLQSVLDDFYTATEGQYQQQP
# Method in brief: as §1
# CK1-delta_h = target: T19, CK1-delta_h (Homo sapiens, UniProt P48730); details: KM ATP, read-out: % control
# T19 construct: purchased Life Technologies (Invitrogen) SelectScreen, Z'-LYTE / Adapta
# Method in brief: as §1
# BRAF = target: T20, BRAF (Homo sapiens, UniProt P15056); details: 100 µM ATP, read-out: % control
# T20 construct: purchased Life Technologies (Invitrogen) SelectScreen, Z'-LYTE / Adapta
# Method in brief: as §1
# FGFR3_K650E_h = target: T21, FGFR3_K650E_h (Homo sapiens, UniProt P22607, K650E); details: KM ATP, read-out: % control
# T21 construct: purchased Life Technologies (Invitrogen) SelectScreen, Z'-LYTE / Adapta
# Method in brief: as §1
# p38-delta_h = target: T22, p38-delta_h (Homo sapiens, UniProt O15264); details: KM ATP, read-out: % control
# T22 construct: purchased Life Technologies (Invitrogen) SelectScreen, Z'-LYTE / Adapta
# T22 sequence (O15264 whole entry): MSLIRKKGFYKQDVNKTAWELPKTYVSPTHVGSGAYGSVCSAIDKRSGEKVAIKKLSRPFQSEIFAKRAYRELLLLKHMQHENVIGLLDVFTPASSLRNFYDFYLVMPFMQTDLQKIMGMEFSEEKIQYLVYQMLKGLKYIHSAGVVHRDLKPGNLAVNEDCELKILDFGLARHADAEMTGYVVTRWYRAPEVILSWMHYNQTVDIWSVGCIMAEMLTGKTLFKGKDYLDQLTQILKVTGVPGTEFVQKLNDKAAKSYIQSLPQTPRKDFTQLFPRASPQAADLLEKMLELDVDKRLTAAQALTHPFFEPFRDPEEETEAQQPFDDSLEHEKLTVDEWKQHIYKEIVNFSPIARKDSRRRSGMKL
# Method in brief: as §1
# FAK_h = target: T23, FAK_h (Homo sapiens, UniProt Q05397); details: KM ATP, read-out: % control
# T23 construct: purchased Life Technologies (Invitrogen) SelectScreen, Z'-LYTE / Adapta
# Method in brief: as §1
# BrSK1_h = target: T24, BrSK1_h (Homo sapiens, UniProt Q8TDC3); details: KM ATP, read-out: % control
# T24 construct: purchased Life Technologies (Invitrogen) SelectScreen, Z'-LYTE / Adapta
# Method in brief: as §1
# MAPK1_h = target: T25, MAPK1_h (Homo sapiens, UniProt P28482); details: KM ATP, read-out: % control
# T25 construct: purchased Life Technologies (Invitrogen) SelectScreen, Z'-LYTE / Adapta
# T25 sequence (P28482 whole entry): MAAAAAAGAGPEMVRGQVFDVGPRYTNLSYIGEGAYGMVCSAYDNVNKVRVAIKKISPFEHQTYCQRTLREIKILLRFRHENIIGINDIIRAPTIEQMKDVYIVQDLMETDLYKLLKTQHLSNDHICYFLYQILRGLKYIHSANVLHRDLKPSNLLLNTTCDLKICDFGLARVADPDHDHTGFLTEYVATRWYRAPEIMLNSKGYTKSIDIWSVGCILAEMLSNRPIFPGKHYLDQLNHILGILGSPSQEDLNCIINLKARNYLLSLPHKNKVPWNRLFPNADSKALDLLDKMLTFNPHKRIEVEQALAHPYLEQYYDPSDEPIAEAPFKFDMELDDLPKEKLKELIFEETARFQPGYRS
# Method in brief: as §1
# PTK2B_h = target: T26, PTK2B_h (Homo sapiens, UniProt Q14289); details: KM ATP, read-out: % control
# T26 construct: purchased Life Technologies (Invitrogen) SelectScreen, Z'-LYTE / Adapta
# T26 sequence (Q14289 whole entry): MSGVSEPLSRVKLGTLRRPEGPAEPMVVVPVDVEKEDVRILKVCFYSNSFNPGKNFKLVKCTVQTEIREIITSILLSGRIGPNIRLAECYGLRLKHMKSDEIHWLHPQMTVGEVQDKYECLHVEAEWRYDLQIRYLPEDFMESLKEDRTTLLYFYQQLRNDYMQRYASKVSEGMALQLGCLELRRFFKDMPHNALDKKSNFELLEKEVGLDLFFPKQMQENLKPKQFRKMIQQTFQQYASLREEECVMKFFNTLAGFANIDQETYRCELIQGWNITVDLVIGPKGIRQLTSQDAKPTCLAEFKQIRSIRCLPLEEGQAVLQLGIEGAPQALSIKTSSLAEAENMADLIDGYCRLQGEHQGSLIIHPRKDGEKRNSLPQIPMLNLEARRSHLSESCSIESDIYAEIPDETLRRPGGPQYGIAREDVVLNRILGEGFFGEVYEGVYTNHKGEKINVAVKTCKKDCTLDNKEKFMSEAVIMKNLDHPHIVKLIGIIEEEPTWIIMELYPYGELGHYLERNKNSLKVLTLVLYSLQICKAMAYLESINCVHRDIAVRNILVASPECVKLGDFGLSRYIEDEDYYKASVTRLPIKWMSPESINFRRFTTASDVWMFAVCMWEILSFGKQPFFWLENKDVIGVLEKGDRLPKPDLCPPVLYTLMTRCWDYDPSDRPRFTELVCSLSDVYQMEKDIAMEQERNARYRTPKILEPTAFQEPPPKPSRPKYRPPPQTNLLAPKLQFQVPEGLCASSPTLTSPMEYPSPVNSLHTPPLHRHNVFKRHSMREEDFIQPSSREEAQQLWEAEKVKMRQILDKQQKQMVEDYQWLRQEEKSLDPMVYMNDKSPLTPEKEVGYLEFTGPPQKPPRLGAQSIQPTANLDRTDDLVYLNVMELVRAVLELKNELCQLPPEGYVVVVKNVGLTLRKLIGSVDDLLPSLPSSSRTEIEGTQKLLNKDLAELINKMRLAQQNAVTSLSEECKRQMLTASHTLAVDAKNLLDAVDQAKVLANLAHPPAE
# Method in brief: as §1
# EphA8_h = target: T27, EphA8_h (Homo sapiens, UniProt P29322); details: KM ATP, read-out: % control
# T27 construct: purchased Life Technologies (Invitrogen) SelectScreen, Z'-LYTE / Adapta
# Method in brief: as §1
# EphB2_h = target: T28, EphB2_h (Homo sapiens, UniProt P29323); details: KM ATP, read-out: % control
# T28 construct: purchased Life Technologies (Invitrogen) SelectScreen, Z'-LYTE / Adapta
# Method in brief: as §1
# Khs_1 = target: T29, Khs_1 (Homo sapiens, UniProt Q9Y4K4); details: KM ATP, read-out: % control
# T29 construct: purchased Life Technologies (Invitrogen) SelectScreen, Z'-LYTE / Adapta
# Method in brief: as §1
# Axl_h = target: T30, Axl_h (Homo sapiens, UniProt P30530); details: KM ATP, read-out: % control
# T30 construct: purchased Life Technologies (Invitrogen) SelectScreen, Z'-LYTE / Adapta
# Method in brief: as §1
# c-RAF_h = target: T31, c-RAF_h (Homo sapiens, UniProt P04049); details: 100 µM ATP, read-out: % control
# T31 construct: purchased Life Technologies (Invitrogen) SelectScreen, Z'-LYTE / Adapta
# T31 sequence (P04049 whole entry): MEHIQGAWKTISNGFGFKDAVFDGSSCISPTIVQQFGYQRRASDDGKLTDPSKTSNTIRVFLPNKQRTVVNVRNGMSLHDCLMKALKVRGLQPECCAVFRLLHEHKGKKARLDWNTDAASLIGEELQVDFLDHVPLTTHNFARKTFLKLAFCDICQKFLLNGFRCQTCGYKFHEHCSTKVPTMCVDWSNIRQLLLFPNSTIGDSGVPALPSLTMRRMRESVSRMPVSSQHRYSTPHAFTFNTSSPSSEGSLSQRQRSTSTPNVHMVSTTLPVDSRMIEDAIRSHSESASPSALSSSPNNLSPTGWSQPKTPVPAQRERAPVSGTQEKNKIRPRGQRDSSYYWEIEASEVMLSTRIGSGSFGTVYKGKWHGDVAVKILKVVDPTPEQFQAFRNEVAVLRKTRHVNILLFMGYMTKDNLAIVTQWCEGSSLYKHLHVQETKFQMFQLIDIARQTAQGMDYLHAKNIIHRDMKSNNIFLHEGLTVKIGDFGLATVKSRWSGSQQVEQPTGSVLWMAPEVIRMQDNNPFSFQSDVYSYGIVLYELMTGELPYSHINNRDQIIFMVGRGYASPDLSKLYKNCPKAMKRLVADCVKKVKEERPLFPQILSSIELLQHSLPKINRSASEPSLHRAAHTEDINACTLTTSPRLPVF
# Method in brief: as §1
# CHK2_h = target: T32, CHK2_h (Homo sapiens, UniProt O96017); details: KM ATP, read-out: % control
# T32 construct: purchased Life Technologies (Invitrogen) SelectScreen, Z'-LYTE / Adapta
# Method in brief: as §1
# [1] = 3 µM, KM ATP, read-out: % control
# [2] = 10-point dose-response, commercial vendor
structure (smiles),measurement,setting,value
"c1cc(CC2CCOCC2)n2nc(Nc3ccc4c(NC5CCOCC5)n[nH]c4c3)nc2c1 [CC-509, [3-(2H-3,4,5,6-tetrahydropyran-4-ylamino)(1H-indazol-6-yl)][5-(2H-3,4,5,6-tetrahydropyran-4-ylmethyl)(2H-1,2,4-triazolo[1,5-a]pyridin-2-yl)]amine]",remaining activity at 3 µM,IRR_h,99%
same,remaining activity at 3 µM,NEK2_h,101%
same,remaining activity at 3 µM,IGF-1R_h,97%
same,remaining activity at 3 µM,EGFR_h,97%
same,remaining activity at 3 µM,Flt3_h; [1],6%
same,IC50,Flt3_h; [2],0.14 µM and 0.143 µM
same,remaining activity at 3 µM,MST3_h,107%
same,remaining activity at 3 µM,PKD2_h,52%
same,remaining activity at 3 µM,MARK4_h,33%
same,remaining activity at 3 µM,MAPK3_h,90%
same,remaining activity at 3 µM,TrkC_h,25%
same,remaining activity at 3 µM,FGFR1_h,69%
same,remaining activity at 3 µM,Flt1_h,55%
same,remaining activity at 3 µM,FGFR3_h,68%
same,remaining activity at 3 µM,Ltk_h,71%
same,remaining activity at 3 µM,Pim-1_h,101%
same,remaining activity at 3 µM,PRKG1_h,96%
same,remaining activity at 3 µM,IRAK1_h,20%
same,remaining activity at 3 µM,Rsk2_h,49%
same,remaining activity at 3 µM,NEK9_h,95%
same,remaining activity at 3 µM,LYN-A_h; [1],54%
same,IC50,LYN-A_h; [2],3.58 µM
same,remaining activity at 3 µM,CK1-delta_h,88%
same,remaining activity at 3 µM,BRAF,83%
same,remaining activity at 3 µM,FGFR3_K650E_h,54%
same,remaining activity at 3 µM,p38-delta_h,82%
same,remaining activity at 3 µM,FAK_h,43%
same,remaining activity at 3 µM,BrSK1_h,65%
same,remaining activity at 3 µM,MAPK1_h,94%
same,remaining activity at 3 µM,PTK2B_h,50%
same,remaining activity at 3 µM,EphA8_h,91%
same,remaining activity at 3 µM,EphB2_h,75%
same,remaining activity at 3 µM,Khs_1,81%
same,remaining activity at 3 µM,Axl_h,70%
same,remaining activity at 3 µM,c-RAF_h,70%
same,remaining activity at 3 µM,CHK2_h,97%
